The values below come from patent US20260176266A1, “PIPERIDINOPYRIMIDINE DERIVATIVE, PREPARATION METHOD THEREFOR AND USE THEREOF IN MEDICINE” (TUOJIE BIOTECH (SHANGHAI) CO., LTD., priority 2022, published 2026).

Common to all, as to type: cell-based
For test [1], the system named is OVCAR3 ovarian cancer cells. Nature of the test: Inhibitory activity against ovarian cancer cells (OVCAR3), CellTiter-Glo viability. To be noted: Homo sapiens, OVCAR-3, 120 h, OVCAR3, 5 days treatment. The procedure:
OVCAR3 ovarian cancer cells were cultured in a cell incubator at […] with 5% CO2 using RPMI 1640 medium with […]. On the first day, the cells were plated in a 96-well plate at a cell concentration of 2500 cells/well and cultured overnight in the incubator. On the second day, the cells were treated with compounds. The maximum compound concentration was 10 μM and was 3-fold diluted to obtain 9 concentrations, and the final concentration of DMSO was 0.1%. After the cells were cultured in the incubator for another 5 days, cell viability was tested using the Celltiter Glo assay kit (Promega), and the testing method was consistent with the operational method provided by the kit. Data were processed using GraphPad Prism 8, and IC50 was calculated.
[formula] • X: the logarithm of the compound concentration; Y: % inhibition.
On the technique in general: ATP-based viability assays read luminescence as a measure of living cells.

Test [2] has as its system HCC1806 breast cancer cells. The test can be described thus: Inhibitory activity against tumor cells, CellTiter-Glo: HCC1806. To be noted: Homo sapiens, 168 h, HCC1806, 7 days treatment. The procedure: (§1) MCF7 (ATCC #HTB-22) and T47D (ATCC #HTB-133) breast cancer cells and PANC-1 (ATCC #CRL-1469) pancreatic cancer cells were purchased from ATCC. MDA-MB-231 (Cobioer #CBP60382), HCC1806 (Cobioer #CBP60373), and MDA-MB-468 (Cobioer #CBP60387) breast cancer cells, HCT-116 (Cobioer #CBP60028) colorectal cancer cells, and OCI-AML-3 (Cobioer #CBP60817) and MV-4-11 (Cobioer #CBP60522) leukemia cells were purchased from Nanjing Cobioer Biosciences Co., Ltd.
(§2) OCI-AML-3 was cultured in RPMI 1640 medium with 20% FBS; HCC1806 and T47D were cultured in RPMI 1640 medium with 10% FBS; MCF7, MDA-MB-231, MDA-MB-468, and PANC-1 were cultured in DMEM medium with 10% FBS; MV-4-11 was cultured in IMDM medium with 20% FBS; HCT-116 was cultured in MC′5A medium with 10% FBS.
(§3) Palbociclib-resistant cells were constructed on MCF7 parent cells, designated MCF7 Palbo-R, and the culture conditions were consistent with those of the parent cells. All tumor cells were cultured in a cell incubator at 37° C. with 5% CO2. The cells were seeded at corresponding cell densities (600 cells/well for MDA-MB-231; 500 cells/well for MDA-MB-468, PANC-1, and HCT-116; 200 cells/well for MCF7 and HCC1806; 800 cells/well for MCF7 Palbo-R; 3000 cells/well for OCI-AML-3 and MV-4-11) in 384-well plates and cultured overnight in the incubator. On the second day, the cells were treated with compounds. The maximum compound concentration was 10 μM and was 3-fold diluted to obtain 9 concentrations, each tested in duplicate, and the final concentration of DMSO was 0.1%. The cells continued to be cultured in the incubator, with MDA-MB-231, PANC-1, MDA-MB-468, OCI-AML-3, and MV-4-11 being treated with drugs for 5 days and HCC1806, MCF7, MCF7 Palbo-R, and HCT116 being treated with drugs for 7 days. Cell viability was tested using the Celltiter Glo assay kit (Promega), and the testing method was consistent with the operational method provided by the kit. Readings were taken using an Envision multimode microplate reader. Data were processed using GraphPad Prism 8, and IC50 was calculated. […]

Test [3] deals with MCF7 Palbo-R (palbociclib-resistant cells constructed on MCF7). The test can be described thus: Inhibitory activity against tumor cells, CellTiter-Glo: MCF7 Palbo-R. Particulars: Homo sapiens, 168 h, 7 days treatment. The procedure: as §1, §2, §3
Another test deals with T47D breast cancer cells. The test can be described thus: Inhibitory activity against tumor cells, CellTiter-Glo: T47D. Particulars: Homo sapiens. The protocol:
as §1, §2
(§4) Palbociclib-resistant cells were constructed on MCF7 parent cells, designated MCF7 Palbo-R, and the culture conditions were consistent with those of the parent cells. All tumor cells were cultured in a cell incubator at 37° C. with 5% CO2. The cells were seeded at corresponding cell densities (600 cells/well for MDA-MB-231; 500 cells/well for MDA-MB-468, PANC-1, and HCT-116; 200 cells/well for MCF7 and HCC1806; 800 cells/well for MCF7 Palbo-R; 3000 cells/well for OCI-AML-3 and MV-4-11) in 384-well plates and cultured overnight in the incubator. On the second day, the cells were treated with compounds. The maximum compound concentration was 10 μM and was 3-fold diluted to obtain 9 concentrations, each tested in duplicate, and the final concentration of DMSO was 0.1%. The cells continued to be cultured in the incubator, with MDA-MB-231, PANC-1, MDA-MB-468, OCI-AML-3, and MV-4-11 being treated with drugs for 5 days and HCC1806, MCF7, MCF7 Palbo-R, and HCT116 being treated with drugs for 7 days. Cell viability was tested using the Celltiter Glo assay kit (Promega), and the testing method was consistent with the operational method provided by the kit. Readings were taken using an Envision multimode microplate reader. Data were processed using GraphPad Prism 8, and IC50 was calculated.
(§5) Y=Bottom+(Top−Bottom)/(1+10^((Log IC50−X)×HillSlope)). Calculation formula: • X: the logarithm of the compound concentration; Y: % inhibition.

Another test concerns OCI-AML-3 leukemia cells. Nature of the test: Inhibitory activity against tumor cells, CellTiter-Glo: OCI-AML-3. Particulars: Homo sapiens, 120 h, OCI-AML-3, 5 days treatment. The protocol: as §1, §2, §3
The next test relates to various tumor cell lines. Nature of the test: Inhibitory activity against tumor cells, summary over the panel of Tables 4 and 5. Particulars: summary of Tables 4 and 5. The protocol: as §1, §2, §4, §5
For test [4], the system named is MDA-MB-231 breast cancer cells. Nature of the test: Inhibitory activity against tumor cells, CellTiter-Glo: MDA-MB-231. To be noted: Homo sapiens, 120 h, MDA-MB-231, 5 days treatment. The procedure: as §1, §2, §3
Test [5] concerns MDA-MB-468 breast cancer cells. The test can be described thus: Inhibitory activity against tumor cells, CellTiter-Glo: MDA-MB-468. To be noted: Homo sapiens, 120 h, MDA-MB-468, 5 days treatment. The protocol: as §1, §2, §3
Test [6] has as its system HCT-116 colorectal cancer cells. Nature of the test: Inhibitory activity against tumor cells, CellTiter-Glo: HCT-116. To be noted: Homo sapiens, 168 h, HCT-116, 7 days treatment. The protocol:
as §1, §2, §4, §5

For test [7], the system named is PANC-1 pancreatic cancer cells. The test can be described thus: Inhibitory activity against tumor cells, CellTiter-Glo: PANC-1. To be noted: Homo sapiens, 120 h, PANC-1, 5 days treatment. The procedure: as §1, §2, §3
Another test concerns MV-4-11 leukemia cells. The test can be described thus: Inhibitory activity against tumor cells, CellTiter-Glo: MV-4-11. Particulars: Homo sapiens, MV4-11, 120 h, MV-4-11, 5 days treatment. The procedure:
as §1, §2, §3

For a further test, the system named is MCF7 breast cancer cells. The test can be described thus: Inhibitory activity against tumor cells, CellTiter-Glo: MCF7. To be noted: Homo sapiens, 168 h, MCF7, 7 days treatment. The procedure:
as §1, §2, §3

For `C[C@H](Nc1ncc2c(n1)CN(C(=O)N[C@H](CN(C)C)c1ccccc1)[C@H](C)C2)c1ccccc1` [Example 9, (R)—N—((S)-2-(Dimethylamino)-1-phenylethyl)-6-methyl-2-(((S)-1-phenylethyl)amino)-5,8-dihydropyrido[3,4-d]pyrimidine-7(6H)-carboxamide], 13.8 nM corresponded to half-maximal inhibition in [1] (IC50). In other words, the double-digit nanomolar range.
As for `[2H]C([2H])([2H])N(C[C@@H](NC(=O)N1Cc2nc(NCc3ccn(C)n3)ncc2C[C@H]1C)c1ccccc1)C([2H])([2H])[2H]` [Example 12, (R)—N—((S)-2-(Bis(methyl-d3)amino)-1-phenylethyl)-6-methyl-2-(((1-methyl-1H-pyrazol-3-yl)methyl)amino)-5,8-dihydropyrido[3,4-d]pyrimidine-7(6H)-carboxamide], the IC50 – broadly, the point on the concentration scale where inhibition reaches its midpoint – stood at 0.0285 µM in test [2]; 0.0433 µM in [3]; 0.0415 µM in the test on T47D breast cancer cells; 0.0471 µM in the test with OCI-AML-3 leukemia cells; 0.0258 µM in test [4]; 0.0324 µM in [5]. In addition, the IC50 in test [6] came out at 0.066 µM; in [7], 0.0503 µM; in [1], 33.9 nM; in the test with MV-4-11 leukemia cells, 0.0273 µM; in the test with MCF7 breast cancer cells it was 0.0217 µM. Moreover, the “inhibitory activity against the various tumor cell lines (in words)” value with various tumor cell lines is “high inhibitory activity”.
Turning to `C[C@@H]1Cc2cnc(NC3Cc4ccccc4C3)nc2CN1C(=O)N[C@H](CN(C)C)c1ccccc1` [Example 7, (R)-2-((2,3-Dihydro-1H-inden-2-yl)amino)-N—((S)-2-(dimethylamino)-1-phenylethyl)-6-methyl-5,8-dihydropyrido[3,4-d]pyrimidine-7(6H)-carboxamide], in [1], the IC50 turned out to be 6.44 nM.
On to `[2H]C([2H])([2H])N(C[C@@H](NC(=O)N1Cc2nc(N[C@@H](C)c3ccccn3)ncc2C[C@H]1C)c1ccccc1)C([2H])([2H])[2H]` [Example 19, (R)—N—((S)-2-(Bis(methyl-d3)amino)-1-phenylethyl)-6-methyl-2-(((S)-1-(pyridin-2-yl)ethyl)amino)-5,8-dihydropyrido[3,4-d]pyrimidine-7(6H)-carboxamide], for which the values for the IC50 (with T47D breast cancer cells; in test [6]; in test [1]) were 0.0141 µM, 0.0292 µM and 26.1 nM, respectively. Besides, the “inhibitory activity against the various tumor cell lines (in words)” value in the test with various tumor cell lines was “high inhibitory activity”.
For `CCN(C)C[C@@H](NC(=O)N1Cc2nc(NCc3ccn(C)n3)ncc2C[C@H]1C)c1ccccc1` [Example 8, (R)—N—((S)-2-(Ethyl(methyl)amino)-1-phenylethyl)-6-methyl-2-(((1-methyl-1H-pyrazol-3-yl)methyl)amino)-5,8-dihydropyrido[3,4-d]pyrimidine-7(6H)-carboxamide], the IC50 in test [1] was determined as 58.3 nM.
Regarding `C[C@@H]1Cc2cnc(Nc3cnn(C)c3)nc2CN1C(=O)N[C@H](CN(C)C)c1ccccc1` [Example 17, (R)—N—((S)-2-(Dimethylamino)-1-phenylethyl)-6-methyl-2-((1-methyl-1H-pyrazol-4-yl)amino)-5,8-dihydropyrido[3,4-d]pyrimidine-7(6H)-carboxamide], the IC50 in test [1] was 22.5 nM.
`CC1Cc2cnc(NC3CCOCC3)nc2CN1C(=O)N[C@H](CN(C)C)c1ccccc1` (stereo partly drawn) [Example 10, N—((S)-2-(Dimethylamino)-1-phenylethyl)-6-methyl-2-((tetrahydro-2H-pyran-4-yl)amino)-5,8-dihydropyrido[3,4-d]pyrimidine-7(6H)-carboxamide] yielded an IC50 in test [1] of 42.6 nM.
The same measure, in the same setting: for `C[C@@H]1Cc2cnc(Nc3cnn(CC4CC4)c3)nc2CN1C(=O)N[C@H](CN(C)C)c1ccccc1` [Example 16, (R)-2-((1-(Cyclopropylmethyl)-1H-pyrazol-4-yl)amino)-N—((S)-2-(dimethylamino)-1-phenylethyl)-6-methyl-5,8-dihydropyrido[3,4-d]pyrimidine-7(6H)-carboxamide] the value was 9.99 nM.
The same measure, in the same setting: to `Cc1cc(Nc2ncc3c(n2)CN(C(=O)N[C@H](CN(C)C)c2ccccc2)[C@H](C)C3)ccn1` [Example 15, (R)—N—((S)-2-(Dimethylamino)-1-phenylethyl)-6-methyl-2-((2-methylpyridin-4-yl)amino)-5,8-dihydropyrido[3,4-d]pyrimidine-7(6H)-carboxamide] belongs 26.7 nM.
Turning to `C[C@@H]1Cc2cnc(N[C@H](C)c3ccccc3)nc2CN1C(=O)N[C@H](CN(C)C)c1ccccc1` [Example 5, (R)—N—((S)-2-(Dimethylamino)-1-phenylethyl)-6-methyl-2-(((R)-1-phenylethyl)amino)-5,8-dihydropyrido[3,4-d]pyrimidine-7(6H)-carboxamide], in test [1], the IC50 is 81.2 nM. Against the preceding compound, the IC50 is about 3-fold higher.
Regarding `C[C@@H]1Cc2cnc(NCc3ccn(C)n3)nc2CN1C(=O)N[C@H](CN(C)C)c1cccc(Cl)c1` [Example 13, (R)—N—((S)-1-(3-Chlorophenyl)-2-(dimethylamino)ethyl)-6-methyl-2-(((1-methyl-TH-pyrazol-3-yl)methyl)amino)-5,8-dihydropyrido[3,4-d]pyrimidine-7(6H)-carboxamide], in test [1], the IC50 was determined as 21.7 nM. Against the preceding compound, the IC50 is about 3.7-fold lower.
Consider `[2H]C([2H])([2H])n1ccc(CNc2ncc3c(n2)CN(C(=O)N[C@H](CN(C)C)c2ccccc2)[C@H](C)C3)n1` [Example 14, (R)—N—((S)-2-(Dimethylamino)-1-phenylethyl)-6-methyl-2-(((1-(methyl-d3)-1H-pyrazol-3-yl)methyl)amino)-5,8-dihydropyrido[3,4-d]pyrimidine-7(6H)-carboxamide], for which, in test [1], the 50% inhibitory concentration (IC50) is 40.5 nM.
On to `C#Cc1cccc([C@@H]2CN(C)CC[C@H]2C(=O)N2Cc3nc(NCc4ccn(C)n4)ncc3C[C@H]2C)c1` [Compound 1-2, ((3R,4R)-3-(3-Ethynylphenyl)-1-methylpiperidin-4-yl)((R)-6-methyl-2-(((1-methyl-1H-pyrazol-3-yl)methyl)amino)-5,8-dihydropyrido[3,4-d]pyrimidin-7(6H)-yl)methanone], for which 11.5 nM corresponded to half-maximal inhibition in [1] (IC50).
